The record followed here is patent publication US6376488B1, “Benzoxazine α-1 adrenergic compounds” (Abbott Laboratories, priority 2000, dated 2002).

Counter-ions that a name gives are not always drawn.

The target of the experiment is T1, α1d (rat) adrenoreceptor (Rattus norvegicus, UniProt P23944).
T1 sequence (P23944 1-561): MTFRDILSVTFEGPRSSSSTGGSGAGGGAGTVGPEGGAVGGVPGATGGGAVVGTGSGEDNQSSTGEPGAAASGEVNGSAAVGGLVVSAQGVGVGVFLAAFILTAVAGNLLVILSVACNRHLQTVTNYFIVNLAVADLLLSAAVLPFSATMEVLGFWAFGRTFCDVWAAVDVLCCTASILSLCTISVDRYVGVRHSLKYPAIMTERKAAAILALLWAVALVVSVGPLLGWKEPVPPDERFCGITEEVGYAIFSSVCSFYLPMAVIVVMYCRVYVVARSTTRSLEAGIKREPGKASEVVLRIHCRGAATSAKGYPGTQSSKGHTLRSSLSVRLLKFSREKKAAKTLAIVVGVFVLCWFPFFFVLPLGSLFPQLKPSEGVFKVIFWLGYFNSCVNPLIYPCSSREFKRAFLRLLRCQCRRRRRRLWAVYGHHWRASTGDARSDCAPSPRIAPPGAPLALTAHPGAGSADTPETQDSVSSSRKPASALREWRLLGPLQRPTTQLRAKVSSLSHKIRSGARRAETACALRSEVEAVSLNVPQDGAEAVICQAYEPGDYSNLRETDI
Kind of experiment: [3H]-prazosin radioligand binding, cloned α1d (rat) adrenoreceptor in LTK cells. The settings on record: cloned receptor in LTK cell membranes, [3H]prazosin 0.2 nM. The method, then: Representative compounds of the invention were evaluated for α adrenoreceptor binding affinity in vitro using [^3H]-prazosin as the radioligand and following four cloned α1, adrenoreceptors expressed in LTK cells: α1a (rat), α1a (bovine), α1b : (hampster), and α1d (rat).
The cDNA clones encoding the α1, adrenoreceptors were obtained from TULCO (Triangle Universities Licensing Consortium, Research Triangle Park, N.C.) and inserted into the eukaryotic expression vector SnaB30. In this vector, expression of the adrenoreceptor gene is under the transcriptional control of an SV40 early promoter. Positive drug selection is provided by a neomycin-resistance gene. Mouse fibroblast cells (LTK) were transfected with the α1 expression plasmids and grown in Dulbecco's modified Eagle's medium (DMEM) containing 10% fetal calf serum and 30 μM G418. Stable G418-resistant parental lines were generated with successful expression of adrenoreceptor protein monitored using radioligand binding techniques. Stable single cell clones derived from the parental lines were screened in adrenoreceptor binding assays to identify clones having high adrenoreceptor density. Roller bottle cultures of the cloned lines were used to provide cell membranes for subsequent adrenoreceptor binding characterization studies. A cell line containing the SnaB30 vector expressing the human erythropoietin gene served as a negative control.
For adrenoreceptor binding assays, large scale membrane preparations were utilized in which 6 million cells were seeded into small (450 cm^2) Coming tissue culture roller bottles. DMEM (200 mL) containing 10% fetal calf serum and 300 μM G418 were added to each roller bottle. A 95% air/5% CO2 gas mixture (sterile) was injected into each roller bottle prior to sealing, and the bottles were then incubated at 37° C. on a roller rack for 5 days. Cells were refed with fresh medium after 3 days in culture.
On the fifth day of culture, growth medium was removed from cells grown in roller bottles, and the cells were washed twice with PBS (Sigma, 120 mM NaCl, 2.7 mM KCl, 10 mM Na2HPO4-NaH2PO4, pH=7.4). Cells were detached from the roller bottles by incubating for 15 minutes at 37° C. in a Tris-EDTA solution (10 mM Tris, 100 mM NaCl, 1 mM EDTA, pH=7.4). The cell suspension from each roller bottle was decanted into tared centrifuge tubes and kept on ice. An aliquot of each cell suspension was generally taken for cell counting. Cells were centrifuged at 3000×G for 5 minutes at 2-4° C., washed with PBS and recentrifuged. The supernatant was decanted, and the pellet was weighed to determine the wet weight of cells. Cells were washed a final time in 40 vol 5 mM Tris-HCl, 5 mM EDTA, pH=7.7 and centrifuged at 40,000×G for 10 minutes (“vol” indicates volume/weight, e.g., a “vol” of 40 would indicate that the one gram of cells were washed with 40 mls of buffer). Cells were homogenized in of 50 mM Tris-HCl, 5 mM EDTA (pH=7.4) (10 mL) and diluted to 40 mL/tube. Homogenates were centrifuged at 40,000×G for 10 minutes. The supernatant was decanted and the pellets rehomogenized in 50 mM Tris-HCl (pH=7.4) and centrifuged as before. The supernatant was decanted and the homogenate was resuspended in 6.25 volumes (per gram wet weight) of 50 mM Tris-HCl and aliquots of the pooled homogenates frozen in liquid N2 and,stored at −70° C. until the time of assay.
Receptor binding assays for α1 adrenoreceptors were performed essentially as described by Greengrass and Bremner (Eur. J. Pharmacol. 55: 323-326 (1979)). […] Following equilibration, bound radioligand was separated from free on GF/B filters (presoaked in 0.5% polyethyleneimine) using ither a Brandel or Packard cell harvester. Radioactivity was determined by standard liquid scintillation techniques. Data were analyzed as previously described (Hancock, A. A., Kyncl, J. J., Martin, Y. C. and DeBemardis, J. F., J. Receptor Res. 8: 23-46 (1988)). The in Table 1.

`COc1cccc2c1N1CCN(CCCCn3c(=O)[nH]c4c(sc5ncccc54)c3=O)CC1CO2` (single isomer, unassigned; (-)) [Example 11, (−) 3-[4-(10-methoxy-1,2,4a,5-tetrahydropyrazino[2,1-c][1,4]benzoxazin-3(4H)-yl)butyl]pyrido[3′,2′:4.5]thieno[3,2-d]pyrimidine-2,4(1H,3H)-dione trihydrochloride] came in with a Ki of 0.427 nM.

As a reminder, the Ki is a dissociation constant, usually derived from enzyme kinetics or from competition with a known ligand. A higher Ki goes with weaker binding.
